Test results reported in PubChem BioAssay (NCI).
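Results reflect a 48-hour exposure of cells in 96-well plates to compound at five concentrations. Abbreviation: GI50, concentration required for 50% inhibition of growth. TGI is the concentration that stops growth completely.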

Key:
Assay in all cases: NCI tumour cell line growth inhibition, 48 h; in the data active means GI50 below about 0.43 µM; inactive means the rest
786-0 renal = tested on: 786-0 renal
A549 NSCLC = tested on: A549 NSCLC
ACHN renal = tested on: ACHN renal
BT-549 breast = tested on: BT-549 breast
CAKI-1 renal = tested on: CAKI-1 renal
COLO 205 colon = tested on: COLO 205 colon
DU-145 prostate = tested on: DU-145 prostate
EKVX NSCLC = tested on: EKVX NSCLC
HCT-116 colon = tested on: HCT-116 colon
HCT-15 colon = tested on: HCT-15 colon
HL-60(TB) leukemia = tested on: HL-60(TB) leukemia
HOP-62 NSCLC = tested on: HOP-62 NSCLC
HOP-92 NSCLC = tested on: HOP-92 NSCLC
HS 578T breast = tested on: HS 578T breast
HT29 colon = tested on: HT29 colon
IGROV1 ovarian = tested on: IGROV1 ovarian
K-562 leukemia = tested on: K-562 leukemia
KM12 colon = tested on: KM12 colon
LOX IMVI melanoma = tested on: LOX IMVI melanoma
M14 melanoma = tested on: M14 melanoma
MCF7 breast = tested on: MCF7 breast
MDA-MB-435 = tested on: MDA-MB-435
MOLT-4 leukemia = tested on: MOLT-4 leukemia
NCI-H226 lung = tested on: NCI-H226 lung
NCI-H23 lung = tested on: NCI-H23 lung
NCI-H460 lung = tested on: NCI-H460 lung
NCI-H522 lung = tested on: NCI-H522 lung
NCI/ADR-RES ovarian = tested on: NCI/ADR-RES ovarian
OVCAR-3 ovarian = tested on: OVCAR-3 ovarian
OVCAR-4 ovarian = tested on: OVCAR-4 ovarian
OVCAR-5 ovarian = tested on: OVCAR-5 ovarian
OVCAR-8 ovarian = tested on: OVCAR-8 ovarian
PC-3 prostate = tested on: PC-3 prostate
RPMI-8226 leukemia = tested on: RPMI-8226 leukemia
RXF 393 renal = tested on: RXF 393 renal
SF-268 CNS = tested on: SF-268 CNS
SF-295 CNS = tested on: SF-295 CNS
SF-539 CNS = tested on: SF-539 CNS
SK-MEL-2 melanoma = tested on: SK-MEL-2 melanoma
SK-MEL-28 melanoma = tested on: SK-MEL-28 melanoma
SK-MEL-5 melanoma = tested on: SK-MEL-5 melanoma
SK-OV-3 ovarian = tested on: SK-OV-3 ovarian
SN12C renal = tested on: SN12C renal
SNB-19 CNS = tested on: SNB-19 CNS
SNB-75 CNS = tested on: SNB-75 CNS
SR leukemia = tested on: SR leukemia
SW-620 colon = tested on: SW-620 colon
T-47D breast = tested on: T-47D breast
TK-10 renal = tested on: TK-10 renal
U251 CNS = tested on: U251 CNS
UACC-257 melanoma = tested on: UACC-257 melanoma
UACC-62 melanoma = tested on: UACC-62 melanoma
UO-31 renal = tested on: UO-31 renal
CCRF-CEM leukemia = tested on: CCRF-CEM leukemia
HCC-2998 colon = tested on: HCC-2998 colon
MALME-3M melanoma = tested on: MALME-3M melanoma
MDA-MB-231 breast = tested on: MDA-MB-231 breast

CCOC(=O)[C@H]1O[C@@H]1C(=O)N[C@@H](CC(C)C)C(=O)NCCc1ccc(O)cc1
inactive: GI50 (786-0 renal) > 100 µM | GI50 (A549 NSCLC) > 100 µM | GI50 (ACHN renal) > 100 µM | GI50 (BT-549 breast) > 100 µM | GI50 (CAKI-1 renal) > 100 µM | GI50 (COLO 205 colon) > 100 µM | GI50 (DU-145 prostate) > 100 µM | GI50 (EKVX NSCLC) > 100 µM | GI50 (HCT-116 colon) > 100 µM | GI50 (HCT-15 colon) > 100 µM | GI50 (HL-60(TB) leukemia) > 100 µM | GI50 (HOP-62 NSCLC) > 100 µM | GI50 (HOP-92 NSCLC) > 100 µM | GI50 (HS 578T breast) > 100 µM | GI50 (HT29 colon) > 100 µM | GI50 (IGROV1 ovarian) > 100 µM | GI50 (K-562 leukemia) 48.4 µM | GI50 (KM12 colon) > 100 µM | GI50 (LOX IMVI melanoma) > 100 µM | GI50 (M14 melanoma) > 100 µM | GI50 (MCF7 breast) > 100 µM | GI50 (MDA-MB-435) > 100 µM | GI50 (MOLT-4 leukemia) > 100 µM | GI50 (NCI-H226 lung) > 100 µM | GI50 (NCI-H23 lung) > 100 µM | GI50 (NCI-H460 lung) > 100 µM | GI50 (NCI-H522 lung) > 100 µM | GI50 (NCI/ADR-RES ovarian) > 100 µM | GI50 (OVCAR-3 ovarian) > 100 µM | GI50 (OVCAR-4 ovarian) > 100 µM | GI50 (OVCAR-5 ovarian) > 100 µM | GI50 (OVCAR-8 ovarian) > 100 µM | GI50 (PC-3 prostate) > 100 µM | GI50 (RPMI-8226 leukemia) > 100 µM | GI50 (RXF 393 renal) > 100 µM | GI50 (SF-268 CNS) > 100 µM | GI50 (SF-295 CNS) > 100 µM | GI50 (SF-539 CNS) > 100 µM | GI50 (SK-MEL-2 melanoma) > 100 µM | GI50 (SK-MEL-28 melanoma) > 100 µM | GI50 (SK-MEL-5 melanoma) > 100 µM | GI50 (SK-OV-3 ovarian) > 100 µM | GI50 (SN12C renal) > 100 µM | GI50 (SNB-19 CNS) > 100 µM | GI50 (SNB-75 CNS) > 100 µM | GI50 (SR leukemia) 41 µM | GI50 (SW-620 colon) > 100 µM | GI50 (T-47D breast) > 100 µM | GI50 (TK-10 renal) > 100 µM | GI50 (U251 CNS) > 100 µM | GI50 (UACC-257 melanoma) > 100 µM | GI50 (UACC-62 melanoma) > 100 µM | GI50 (UO-31 renal) > 100 µM
> 100 µM: TGI (786-0 renal) | TGI (A549 NSCLC) | TGI (ACHN renal) | TGI (BT-549 breast) | TGI (CAKI-1 renal) | TGI (COLO 205 colon) | TGI (DU-145 prostate) | TGI (EKVX NSCLC) | TGI (HCT-116 colon) | TGI (HCT-15 colon) | TGI (HL-60(TB) leukemia) | TGI (HOP-62 NSCLC) | TGI (HOP-92 NSCLC) | TGI (HS 578T breast) | TGI (HT29 colon) | TGI (IGROV1 ovarian) | TGI (K-562 leukemia) | TGI (KM12 colon) | TGI (LOX IMVI melanoma) | TGI (M14 melanoma) | TGI (MCF7 breast) | TGI (MDA-MB-435) | TGI (MOLT-4 leukemia) | TGI (NCI-H226 lung) | TGI (NCI-H23 lung) | TGI (NCI-H460 lung) | TGI (NCI-H522 lung) | TGI (NCI/ADR-RES ovarian) | TGI (OVCAR-3 ovarian) | TGI (OVCAR-4 ovarian) | TGI (OVCAR-5 ovarian) | TGI (OVCAR-8 ovarian) | TGI (PC-3 prostate) | TGI (RPMI-8226 leukemia) | TGI (RXF 393 renal) | TGI (SF-268 CNS) | TGI (SF-295 CNS) | TGI (SF-539 CNS) | TGI (SK-MEL-2 melanoma) | TGI (SK-MEL-28 melanoma) | TGI (SK-MEL-5 melanoma) | TGI (SK-OV-3 ovarian) | TGI (SN12C renal) | TGI (SNB-19 CNS) | TGI (SNB-75 CNS) | TGI (SR leukemia) | TGI (SW-620 colon) | TGI (T-47D breast) | TGI (TK-10 renal) | TGI (U251 CNS) | TGI (UACC-257 melanoma) | TGI (UACC-62 melanoma) | TGI (UO-31 renal)

O=C1c2ccccc2-c2nnc(-c3ccc(Br)cc3)cc21
> 100 µM: TGI (786-0 renal) | TGI (A549 NSCLC) | TGI (ACHN renal) | TGI (BT-549 breast) | TGI (CAKI-1 renal) | TGI (CCRF-CEM leukemia) | TGI (COLO 205 colon) | TGI (DU-145 prostate) | TGI (HCC-2998 colon) | TGI (HCT-116 colon) | TGI (HCT-15 colon) | TGI (HL-60(TB) leukemia) | TGI (HOP-62 NSCLC) | TGI (HOP-92 NSCLC) | TGI (HS 578T breast) | TGI (HT29 colon) | TGI (IGROV1 ovarian) | TGI (K-562 leukemia) | TGI (KM12 colon) | TGI (LOX IMVI melanoma) | TGI (MALME-3M melanoma) | TGI (MCF7 breast) | TGI (MDA-MB-231 breast) | TGI (MDA-MB-435) | TGI (MOLT-4 leukemia) | TGI (NCI-H226 lung) | TGI (NCI-H23 lung) | TGI (NCI-H460 lung) | TGI (NCI-H522 lung) | TGI (NCI/ADR-RES ovarian) | TGI (OVCAR-3 ovarian) | TGI (OVCAR-4 ovarian) | TGI (OVCAR-5 ovarian) | TGI (OVCAR-8 ovarian) | TGI (PC-3 prostate) | TGI (RPMI-8226 leukemia) | TGI (RXF 393 renal) | TGI (SF-268 CNS) | TGI (SF-295 CNS) | TGI (SF-539 CNS) | TGI (SK-MEL-2 melanoma) | TGI (SK-MEL-28 melanoma) | TGI (SK-MEL-5 melanoma) | TGI (SK-OV-3 ovarian) | TGI (SN12C renal) | TGI (SNB-19 CNS) | TGI (SNB-75 CNS) | TGI (SW-620 colon) | TGI (T-47D breast) | TGI (TK-10 renal) | TGI (U251 CNS) | TGI (UACC-257 melanoma) | TGI (UACC-62 melanoma) | TGI (UO-31 renal)
inactive: GI50 (786-0 renal) > 100 µM | GI50 (A549 NSCLC) > 100 µM | GI50 (ACHN renal) > 100 µM | GI50 (BT-549 breast) > 100 µM | GI50 (CAKI-1 renal) > 100 µM | GI50 (CCRF-CEM leukemia) > 100 µM | GI50 (COLO 205 colon) > 100 µM | GI50 (DU-145 prostate) > 100 µM | GI50 (HCC-2998 colon) > 100 µM | GI50 (HCT-116 colon) > 100 µM | GI50 (HCT-15 colon) > 100 µM | GI50 (HL-60(TB) leukemia) > 100 µM | GI50 (HOP-62 NSCLC) > 100 µM | GI50 (HOP-92 NSCLC) > 100 µM | GI50 (HS 578T breast) > 100 µM | GI50 (HT29 colon) > 100 µM | GI50 (IGROV1 ovarian) > 100 µM | GI50 (K-562 leukemia) > 100 µM | GI50 (KM12 colon) > 100 µM | GI50 (LOX IMVI melanoma) > 100 µM | GI50 (MALME-3M melanoma) > 100 µM | GI50 (MCF7 breast) > 100 µM | GI50 (MDA-MB-231 breast) > 100 µM | GI50 (MDA-MB-435) > 100 µM | GI50 (MOLT-4 leukemia) > 100 µM | GI50 (NCI-H226 lung) > 100 µM | GI50 (NCI-H23 lung) > 100 µM | GI50 (NCI-H460 lung) > 100 µM | GI50 (NCI-H522 lung) > 100 µM | GI50 (NCI/ADR-RES ovarian) > 100 µM | GI50 (OVCAR-3 ovarian) > 100 µM | GI50 (OVCAR-4 ovarian) > 100 µM | GI50 (OVCAR-5 ovarian) > 100 µM | GI50 (OVCAR-8 ovarian) > 100 µM | GI50 (PC-3 prostate) > 100 µM | GI50 (RPMI-8226 leukemia) > 100 µM | GI50 (RXF 393 renal) > 100 µM | GI50 (SF-268 CNS) > 100 µM | GI50 (SF-295 CNS) > 100 µM | GI50 (SF-539 CNS) > 100 µM | GI50 (SK-MEL-2 melanoma) > 100 µM | GI50 (SK-MEL-28 melanoma) > 100 µM | GI50 (SK-MEL-5 melanoma) > 100 µM | GI50 (SK-OV-3 ovarian) > 100 µM | GI50 (SN12C renal) > 100 µM | GI50 (SNB-19 CNS) > 100 µM | GI50 (SNB-75 CNS) > 100 µM | GI50 (SW-620 colon) > 100 µM | GI50 (T-47D breast) 48.8 µM | GI50 (TK-10 renal) > 100 µM | GI50 (U251 CNS) > 100 µM | GI50 (UACC-257 melanoma) > 100 µM | GI50 (UACC-62 melanoma) > 100 µM | GI50 (UO-31 renal) > 100 µM
